#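 Following 48 hours of exposure in 96-well plates, responses at five concentrations were used to interpolate endpoints linearly. Here, GI50 denotes the concentration required for 50% inhibition of growth.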 Activity calls are given as the source filed them. Rule as the data show it: active = GI50 up to about 1.1 µM and inactive = higher.
# Columns and labels:
# Assay in all cases: NCI anticancer screen, dose series, 48 h
# SK-OV-3 = system: SK-OV-3
# SR = system: SR
# CAKI-1 = system: CAKI-1
# M19-MEL = system: M19-MEL
# SF-539 = system: SF-539
# NCI-H460 = system: NCI-H460
# SK-MEL-5 = system: SK-MEL-5
# 786-0 = system: 786-0
# UACC-62 = system: UACC-62
# M14 = system: M14
# TK-10 = system: TK-10
# HCT-15 = system: HCT-15
# RXF 393 = system: RXF 393
# KM12 = system: KM12
# EKVX = system: EKVX
# UACC-257 = system: UACC-257
# SN12C = system: SN12C
# SW-620 = system: SW-620
# CCRF-CEM = system: CCRF-CEM
# SK-MEL-2 = system: SK-MEL-2
# HCT-116 = system: HCT-116
# K562 = system: K562
# LXFL 529 = system: LXFL 529
# SF-268 = system: SF-268
# NCI-H226 = system: NCI-H226
# OVCAR-8 = system: OVCAR-8
# SNB-19 = system: SNB-19
# SNB-78 = system: SNB-78
# HOP-92 = system: HOP-92
# A498 = system: A498
# HL-60 = system: HL-60
# SNB-75 = system: SNB-75
# U-251 = system: U-251
# IGROV-1 = system: IGROV-1
# Malme-3M = system: Malme-3M
# A549 = system: A549
# SF-295 = system: SF-295
# ACHN = system: ACHN
# OVCAR-4 = system: OVCAR-4
# HOP-18 = system: HOP-18
# UO-31 = system: UO-31
# KM-20L2 = system: KM-20L2
# OVCAR-5 = system: OVCAR-5
# RPMI-8226 = system: RPMI-8226
# DLD-1 = system: DLD-1
# OVCAR-3 = system: OVCAR-3
# NCI-H23 = system: NCI-H23
# HOP-62 = system: HOP-62
# HCC 2998 = system: HCC 2998
# NCI-H522 = system: NCI-H522
# HT-29 = system: HT-29
# LOX IMVI = system: LOX IMVI
# MOLT-4 = system: MOLT-4
# COLO 205 = system: COLO 205
# T47D = system: T47D
# MDA-N = system: MDA-N
# BT-549 = system: BT-549
# MDA-MB-435 = system: MDA-MB-435
# PC-3 = system: PC-3
# SK-MEL-28 = system: SK-MEL-28
# NCI/ADR-RES = system: NCI/ADR-RES
# DU-145 = system: DU-145
# MDA-MB-231 = system: MDA-MB-231
# Hs-578T = system: Hs-578T
# MCF7 = system: MCF7
smiles,measurement,setting,value
O=C(N/N=C(/CCN1CCCC1)CC(c1ccccc1)c1c(O)c2ccccc2oc1=O)c1ccncc1 (stereo unspecified),GI50,SK-OV-3,> 100 µM (inactive)
same,GI50,SR,15.4 µM (inactive)
same,GI50,CAKI-1,> 100 µM (inactive)
same,GI50,M19-MEL,95.1 µM (inactive)
same,GI50,SF-539,> 100 µM (inactive)
same,GI50,NCI-H460,> 100 µM (inactive)
same,GI50,SK-MEL-5,> 100 µM (inactive)
same,GI50,786-0,> 100 µM (inactive)
same,GI50,UACC-62,> 100 µM (inactive)
same,GI50,M14,94.6 µM (inactive)
same,GI50,TK-10,> 100 µM (inactive)
same,GI50,HCT-15,> 100 µM
same,GI50,RXF 393,> 100 µM (inactive)
same,GI50,KM12,> 100 µM (inactive)
same,GI50,EKVX,> 100 µM (inactive)
same,GI50,UACC-257,> 100 µM (inactive)
same,GI50,SN12C,> 100 µM (inactive)
same,GI50,SW-620,41.2 µM (inactive)
same,GI50,CCRF-CEM,50.8 µM (inactive)
same,GI50,SK-MEL-2,> 100 µM (inactive)
same,GI50,HCT-116,> 100 µM (inactive)
same,GI50,K562,87.1 µM (inactive)
same,GI50,LXFL 529,> 100 µM (inactive)
same,GI50,SF-268,> 100 µM (inactive)
same,GI50,NCI-H226,> 100 µM (inactive)
same,GI50,OVCAR-8,> 100 µM (inactive)
same,GI50,SNB-19,> 100 µM (inactive)
same,GI50,SNB-78,> 100 µM (inactive)
same,GI50,HOP-92,35 µM (inactive)
same,GI50,A498,> 100 µM (inactive)
same,GI50,HL-60,30 µM (inactive)
same,GI50,SNB-75,> 100 µM (inactive)
same,GI50,U-251,> 100 µM (inactive)
same,GI50,IGROV-1,> 100 µM (inactive)
same,GI50,Malme-3M,93.3 µM (inactive)
same,GI50,A549,> 100 µM (inactive)
same,GI50,SF-295,> 100 µM (inactive)
same,GI50,ACHN,> 100 µM (inactive)
same,GI50,OVCAR-4,> 100 µM (inactive)
same,GI50,HOP-18,> 100 µM (inactive)
same,GI50,UO-31,> 100 µM (inactive)
same,GI50,KM-20L2,> 100 µM (inactive)
same,GI50,OVCAR-5,> 100 µM (inactive)
same,GI50,RPMI-8226,45.1 µM (inactive)
same,GI50,DLD-1,> 100 µM (inactive)
same,GI50,OVCAR-3,> 100 µM (inactive)
same,GI50,NCI-H23,> 100 µM (inactive)
same,GI50,HOP-62,> 100 µM (inactive)
same,GI50,HCC 2998,0.171 µM (active)
same,GI50,NCI-H522,72.6 µM (inactive)
same,GI50,HT-29,> 100 µM (inactive)
same,GI50,LOX IMVI,> 100 µM (inactive)
CCOC(=O)c1nc2cc(Cl)ccc2[nH]c1=O,GI50,SK-OV-3,> 100 µM (inactive)
same,GI50,MOLT-4,> 100 µM (inactive)
same,GI50,SR,> 100 µM (inactive)
same,GI50,CAKI-1,> 100 µM (inactive)
same,GI50,COLO 205,> 100 µM (inactive)
same,GI50,T47D,> 100 µM (inactive)
same,GI50,SF-539,> 100 µM (inactive)
same,GI50,NCI-H460,53.7 µM (inactive)
same,GI50,SK-MEL-5,> 100 µM (inactive)
same,GI50,786-0,> 100 µM (inactive)
same,GI50,MDA-N,> 100 µM (inactive)
same,GI50,UACC-62,> 100 µM (inactive)
same,GI50,M14,> 100 µM (inactive)
same,GI50,TK-10,> 100 µM (inactive)
same,GI50,HCT-15,> 100 µM
same,GI50,RXF 393,> 100 µM (inactive)
same,GI50,KM12,> 100 µM (inactive)
same,GI50,EKVX,> 100 µM (inactive)
same,GI50,UACC-257,> 100 µM (inactive)
same,GI50,SN12C,> 100 µM (inactive)
same,GI50,SW-620,> 100 µM (inactive)
same,GI50,CCRF-CEM,> 100 µM (inactive)
same,GI50,SK-MEL-2,> 100 µM (inactive)
same,GI50,HCT-116,> 100 µM (inactive)
same,GI50,K562,> 100 µM (inactive)
same,GI50,BT-549,> 100 µM (inactive)
same,GI50,SF-268,> 100 µM (inactive)
same,GI50,NCI-H226,> 100 µM (inactive)
same,GI50,OVCAR-8,> 100 µM (inactive)
same,GI50,SNB-19,> 100 µM (inactive)
same,GI50,MDA-MB-435,> 100 µM (inactive)
same,GI50,HOP-92,> 100 µM (inactive)
same,GI50,A498,> 100 µM (inactive)
same,GI50,HL-60,> 100 µM (inactive)
same,GI50,PC-3,> 100 µM (inactive)
same,GI50,SNB-75,< 0.01 µM (active)
same,GI50,U-251,> 100 µM (inactive)
same,GI50,SK-MEL-28,> 100 µM (inactive)
same,GI50,IGROV-1,> 100 µM (inactive)
same,GI50,Malme-3M,> 100 µM (inactive)
same,GI50,A549,> 100 µM (inactive)
same,GI50,NCI/ADR-RES,> 100 µM (inactive)
same,GI50,SF-295,> 100 µM (inactive)
same,GI50,DU-145,> 100 µM (inactive)
same,GI50,ACHN,> 100 µM (inactive)
same,GI50,OVCAR-4,> 100 µM (inactive)
same,GI50,UO-31,> 100 µM (inactive)
same,GI50,OVCAR-5,> 100 µM (inactive)
same,GI50,RPMI-8226,> 100 µM (inactive)
same,GI50,MDA-MB-231,> 100 µM (inactive)
same,GI50,OVCAR-3,> 100 µM (inactive)
same,GI50,Hs-578T,> 100 µM (inactive)
same,GI50,NCI-H23,> 100 µM (inactive)
same,GI50,MCF7,> 100 µM (inactive)
same,GI50,HOP-62,> 100 µM (inactive)
same,GI50,HCC 2998,> 100 µM (inactive)
same,GI50,NCI-H522,> 100 µM (inactive)
same,GI50,HT-29,> 100 µM (inactive)
same,GI50,LOX IMVI,> 100 µM (inactive)
